# Results as given in US20070021412A1, “Treatment of gastrointestinal dysfunction and related stress with an enantiomerically-pure (S) 2,3-benzodiazepine” (Vela Pharmaceuticals, Inc., priority 2003, published 2007).
# Legend:
# [1] = tested on: stress-induced ulcer formation; experiment: Water immersion stress-induced ulcers test; format: in vivo, rat; conditions: for Ulceration Index: ulcer score × percentage of stomachs showing ulcers; for Score for the Presence of Ulcers Mean ± SEM: score 0-4, N = 8
# [2] = tested on: visceral hypersensitivity, pain, and bloating induced by colonic distension; experiment: Visceral hypersensitivity, pain and bloating test (abdominal contractions after colonic distension and acetic acid); format: in vivo, rat; conditions: 32 mg/kg p.o.
# Method: In yet another gastrointestinal disorder model, the visceral pain and bloating test, the ability of (R)- and (S)-tofisopam to inhibit abdominal contractions in the rat was investigated. (R)- and (S)-tofisopam were able to inhibit abdominal contractions to a greater extent than racemic tofisopam. The effects of (R)-tofisopam, (S)-tofisopam, and (RS)-tofisopam were evaluated for alleviating visceral hypersensitivity, pain, and bloating. […] Eur. J. Pharmacol. 324: 211-217 (1997); Langlois et al. Eur. J. Pharmacol. 318: 141-144 (1996)). The acetic acid makes the colon hypersensitive, modeling the visceral hypersensitivity seen in IBS. The colonic distension models the pain and bloating seen in IBS, and causes abdominal contractions in rats. In the control group 13.8±2.0 abdominal contractions were measured over the 10-minute period of observation.
# [3] = tested on: Colonic Propulsive Motility; experiment: Glass Bead Test (stretch-stimulated colonic propulsion); format: in vivo, mouse; conditions: for Expulsion Time Mean ± SEM: 30 minutes before bead, cutoff 30 minutes, in min
# Method: In the test, usually performed in mice, a 3-mm glass bead is inserted through the anus into the distal colon (using a glass rod) to a depth of 2 cm. The time to expel the glass bead is then measured; normally, the glass bead is expelled in approximately 10 minutes. This model is especially sensitive to compounds with inhibitory effects on stretch-stimulated propulsive motor activity; as such, it is often used as an animal model for IBS. A test compound that inhibits stretch-stimulated-colonic propulsive motility may be used to treat gastrointestinal dysfunction, including IBS. Both enantiomerically-pure (R)- and (S)-tofisopam inhibited propulsive motility to a greater extent than the racemate.
# The glass bead test is commmonly used to evaluate the ability of compounds to affect stimulated colonic propulsion. In the test, usually performed in mice, a 3-mm glass bead is inserted through the anus into the distal colon (using a glass rod) to a depth of 2 cm. The time to expel the glass bead is then measured; normally, the glass bead is expelled in approximately 10 minutes. This model is especially sensitive to compounds with inhibitory effects on stretch-stimulated propulsive motor activity; as such, it is often used as an animal model for IBS.
# In each study, (RS)-, (R)- and (S)-tofisopam were evaluated for their ability to increase or decrease the time for expulsion of the glass bead. Test compounds were administered 30 minutes prior to insertion of the bead, and a maximum time cutoff of 30 minutes to expulsion was used.
# [4] = tested on: Gastrointestinal Propulsive Motility; experiment: Charcoal Meal Test (basal gastrointestinal propulsion); format: in vivo, rat; conditions: for % Inhibition (gastrointestinal propulsive motility): numbers in parentheses indicate % increase
# Method: The charcoal meal test is a standard method for evaluating the effect of compounds on basal, nonstimulated propulsive motility of the stomach and small intestine. It is generally considered predictive of a compound's ability to inhibit or accelerate basal gastric propulsion in humans. In the test, usually performed in rats, nonactivated charcoal powder is administered by oral gavage. Sixty minutes after administration of the charcoal suspension, rats were sacrificed by CO2 inhalation, the stomach and small intestine were removed, and the distance between the pylorus and the furthest progression of the charcoal meal was measured and compared to the distance between the pylorus and the ileocecal junction. This model is especially sensitive to compounds with the ability to increase or decrease basal propulsive motor activity of the stomach and small intestine. It is therefore often used to predict the potential for compounds to exert antidiarrheal or anticonstipatory effects, as well as to predict the potential for compounds to produce diarrhea or constipation as a side-effect. Two charcoal meal test were performed in rats. In each study, (RS)-, (R)-and (S)-tofisopam were evaluated for their for their ability to increase or decrease the percent of the intestine traversed by a charcoal meal. Test compounds were administered 30 minutes prior to administration of the charcoal meal.
smiles,measurement,setting,value
"CC[C@@H]1C(C)=NN=C(c2ccc(OC)c(OC)c2)c2cc(OC)c(OC)cc21 [(S)-tofisopam, (S)-1-(3,4-dimethoxyphenyl)-4-methyl-5-ethyl-7,8-dimethoxy-5H-2,3-benzodiazepine]",Ulceration Index,[1]; 16 mg/kg IP,313
same,% of Stomachs Showing Ulcers,[1]; 32 mg/kg IP,38%
same,Score for the Presence of Ulcers Mean ± SEM,[1]; 32 mg/kg IP,1.1 ± 0.4
same,Ulceration Index,[1]; 32 mg/kg IP,42
same,% of Stomachs Showing Ulcers,[1]; 64 mg/kg IP,38%
same,Score for the Presence of Ulcers Mean ± SEM,[1]; 64 mg/kg IP,1.3 ± 0.3
same,Ulceration Index,[1]; 64 mg/kg IP,47
same,number of abdominal cramps,[2]; vehicle control 18.8±1.8 cramps,10.4±1.3 cramps
same,decrease of abdominal cramps,[2]; versus vehicle control,45%
same,% Inhibition (colonic expulsion),[3]; 32 mg/kg IP,100%
same,Expulsion Time Mean ± SEM,[3]; 32 mg/kg IP,30.0 ± 0.0
same,% Inhibition (colonic expulsion),[3]; 64 mg/kg IP,100%
same,Expulsion Time Mean ± SEM,[3]; 64 mg/kg IP,30.0 ± 0.0
same,"% Intestine Traversed, Mean ± SEM","[4]; first experiment, 64 mg/kg IP",75.7 ± 3.1%
same,% Inhibition (gastrointestinal propulsive motility),"[4]; first experiment, 64 mg/kg IP",7.1%
same,"% Intestine Traversed, Mean ± SEM","[4]; second experiment, 4 mg/kg IP",79.1 ± 1.3%
same,"% Intestine Traversed, Mean ± SEM","[4]; second experiment, 8 mg/kg IP",80.9 ± 1.9%
same,"% Intestine Traversed, Mean ± SEM","[4]; second experiment, 16 mg/kg IP",73.3 ± 1.2%
same,% Inhibition (gastrointestinal propulsive motility),"[4]; second experiment, 16 mg/kg IP",1.9%
same,"% Intestine Traversed, Mean ± SEM","[4]; second experiment, 32 mg/kg IP",60.8 ± 2.8 %
same,% Inhibition (gastrointestinal propulsive motility),"[4]; second experiment, 32 mg/kg IP",19.7%
